Data as given in the NIST ThermoML archive (doi:10.1021/je049919e).
± gives the expanded uncertainty stated by the source.

Tests used:
[1] = Ring tensiometer
[2] = xn = mol fraction of the nth substance listed; details: Ring tensiometer

With `OCCO` [1,2-ethanediol] the surface tension liquid-gas ([1]; 293.15 K) was 48.55 ± 0.71 mN/m, the surface tension liquid-gas ([1]; 298.15 K) was 48.11 ± 0.71 mN/m and the surface tension liquid-gas ([1]; 303.15 K) was 47.58 ± 0.7 mN/m. For the same compound, the surface tension liquid-gas ([1]; 308.15 K) was 47.14 ± 0.69 mN/m, the surface tension liquid-gas ([1]; 313.15 K) was 46.79 ± 0.69 mN/m and the surface tension liquid-gas ([1]; 318.15 K) was 46.29 ± 0.68 mN/m. The surface tension liquid-gas ([1]; 323.15 K) was 45.99 ± 0.68 mN/m.

`OCCO` [1,2-ethanediol] + CC1CCC(O)CC1 gave a surface tension liquid-gas ([2]; 293.15 K, x2 = 0) of 48.55 ± 0.71 mN/m, a surface tension liquid-gas ([2]; 298.15 K, x2 = 0) of 48.11 ± 0.71 mN/m and a surface tension liquid-gas ([2]; 303.15 K, x2 = 0) of 47.58 ± 0.7 mN/m. The surface tension liquid-gas ([2]; 308.15 K, x2 = 0) was 47.14 ± 0.69 mN/m, the surface tension liquid-gas ([2]; 313.15 K, x2 = 0) was 46.79 ± 0.69 mN/m and the surface tension liquid-gas ([2]; 318.15 K, x2 = 0) was 46.29 ± 0.68 mN/m. It also gave a surface tension liquid-gas ([2]; 323.15 K, x2 = 0) of 45.99 ± 0.68 mN/m.

For `OCCO` [1,2-ethanediol] + CC1CCCC(O)C1, the surface tension liquid-gas ([2]; 293.15 K, x2 = 0) was 48.55 ± 0.71 mN/m, the surface tension liquid-gas ([2]; 298.15 K, x2 = 0) was 48.11 ± 0.71 mN/m and the surface tension liquid-gas ([2]; 303.15 K, x2 = 0) was 47.58 ± 0.7 mN/m. For the same compound, the surface tension liquid-gas ([2]; 308.15 K, x2 = 0) was 47.14 ± 0.69 mN/m, the surface tension liquid-gas ([2]; 313.15 K, x2 = 0) was 46.79 ± 0.69 mN/m and the surface tension liquid-gas ([2]; 318.15 K, x2 = 0) was 46.29 ± 0.68 mN/m. The surface tension liquid-gas ([2]; 323.15 K, x2 = 0) was 45.99 ± 0.68 mN/m.

`OCCO` [1,2-ethanediol] + CC1CCCCC1O showed a surface tension liquid-gas ([2]; 293.15 K, x2 = 0) of 48.55 ± 0.71 mN/m, a surface tension liquid-gas ([2]; 298.15 K, x2 = 0) of 48.11 ± 0.71 mN/m and a surface tension liquid-gas ([2]; 303.15 K, x2 = 0) of 47.58 ± 0.7 mN/m. For the same compound, the surface tension liquid-gas ([2]; 308.15 K, x2 = 0) was 47.14 ± 0.69 mN/m, the surface tension liquid-gas ([2]; 313.15 K, x2 = 0) was 46.79 ± 0.69 mN/m and the surface tension liquid-gas ([2]; 318.15 K, x2 = 0) was 46.29 ± 0.68 mN/m. For the same compound, the surface tension liquid-gas ([2]; 323.15 K, x2 = 0) was 45.99 ± 0.68 mN/m.

`CC1CCCCC1O` (centres undefined) [2-methylcyclohexanol] showed a surface tension liquid-gas ([1]; 293.15 K) of 31.01 ± 0.56 mN/m, a surface tension liquid-gas ([1]; 298.15 K) of 30.57 ± 0.56 mN/m and a surface tension liquid-gas ([1]; 303.15 K) of 30.19 ± 0.55 mN/m. The surface tension liquid-gas ([1]; 308.15 K) was 29.81 ± 0.54 mN/m, the surface tension liquid-gas ([1]; 313.15 K) was 29.37 ± 0.54 mN/m and the surface tension liquid-gas ([1]; 318.15 K) was 28.98 ± 0.53 mN/m. For the same compound, the surface tension liquid-gas ([1]; 323.15 K) was 28.57 ± 0.52 mN/m.

With `CC1CCCCC1O` (centres undefined) [2-methylcyclohexanol] + OCCO the surface tension liquid-gas ([2]; 293.15 K, x1 = 0.04) was 40.61 ± 0.62 mN/m, the surface tension liquid-gas ([2]; 293.15 K, x1 = 0.105) was 36.13 ± 0.55 mN/m and the surface tension liquid-gas ([2]; 293.15 K, x1 = 0.2) was 34.46 ± 0.53 mN/m. The surface tension liquid-gas ([2]; 293.15 K, x1 = 0.307) was 33.49 ± 0.53 mN/m, the surface tension liquid-gas ([2]; 293.15 K, x1 = 0.399) was 32.94 ± 0.53 mN/m and the surface tension liquid-gas ([2]; 293.15 K, x1 = 0.514) was 32.38 ± 0.53 mN/m. It also gave a surface tension liquid-gas ([2]; 293.15 K, x1 = 0.553) of 32.22 ± 0.53 mN/m, a surface tension liquid-gas ([2]; 293.15 K, x1 = 0.76) of 31.72 ± 0.55 mN/m and a surface tension liquid-gas ([2]; 293.15 K, x1 = 0.791) of 31.51 ± 0.55 mN/m. The surface tension liquid-gas ([2]; 293.15 K, x1 = 0.892) was 31.2 ± 0.55 mN/m, the surface tension liquid-gas ([2]; 293.15 K, x1 = 1) was 31.01 ± 0.56 mN/m and the surface tension liquid-gas ([2]; 298.15 K, x1 = 0.04) was 40.3 ± 0.61 mN/m. The surface tension liquid-gas ([2]; 298.15 K, x1 = 0.105) was 35.89 ± 0.55 mN/m, the surface tension liquid-gas ([2]; 298.15 K, x1 = 0.2) was 34.17 ± 0.53 mN/m and the surface tension liquid-gas ([2]; 298.15 K, x1 = 0.307) was 33.2 ± 0.52 mN/m. For the same compound, the surface tension liquid-gas ([2]; 298.15 K, x1 = 0.399) was 32.61 ± 0.52 mN/m, the surface tension liquid-gas ([2]; 298.15 K, x1 = 0.514) was 32.03 ± 0.53 mN/m and the surface tension liquid-gas ([2]; 298.15 K, x1 = 0.553) was 31.87 ± 0.53 mN/m. For the same compound, the surface tension liquid-gas ([2]; 298.15 K, x1 = 0.76) was 31.36 ± 0.54 mN/m, the surface tension liquid-gas ([2]; 298.15 K, x1 = 0.791) was 31.1 ± 0.54 mN/m and the surface tension liquid-gas ([2]; 298.15 K, x1 = 0.892) was 30.78 ± 0.55 mN/m. It also gave a surface tension liquid-gas ([2]; 298.15 K, x1 = 1) of 30.57 ± 0.56 mN/m, a surface tension liquid-gas ([2]; 303.15 K, x1 = 0.04) of 39.94 ± 0.61 mN/m and a surface tension liquid-gas ([2]; 303.15 K, x1 = 0.105) of 35.62 ± 0.55 mN/m. It also gave a surface tension liquid-gas ([2]; 303.15 K, x1 = 0.2) of 33.85 ± 0.53 mN/m, a surface tension liquid-gas ([2]; 303.15 K, x1 = 0.307) of 32.88 ± 0.52 mN/m and a surface tension liquid-gas ([2]; 303.15 K, x1 = 0.399) of 32.26 ± 0.52 mN/m. For the same compound, the surface tension liquid-gas ([2]; 303.15 K, x1 = 0.514) was 31.68 ± 0.52 mN/m, the surface tension liquid-gas ([2]; 303.15 K, x1 = 0.553) was 31.54 ± 0.52 mN/m and the surface tension liquid-gas ([2]; 303.15 K, x1 = 0.76) was 30.97 ± 0.53 mN/m. It also gave a surface tension liquid-gas ([2]; 303.15 K, x1 = 0.791) of 30.73 ± 0.53 mN/m, a surface tension liquid-gas ([2]; 303.15 K, x1 = 0.892) of 30.39 ± 0.54 mN/m and a surface tension liquid-gas ([2]; 303.15 K, x1 = 1) of 30.19 ± 0.55 mN/m. It also gave a surface tension liquid-gas ([2]; 308.15 K, x1 = 0.04) of 39.67 ± 0.6 mN/m, a surface tension liquid-gas ([2]; 308.15 K, x1 = 0.105) of 35.32 ± 0.54 mN/m and a surface tension liquid-gas ([2]; 308.15 K, x1 = 0.2) of 33.55 ± 0.52 mN/m. It also gave a surface tension liquid-gas ([2]; 308.15 K, x1 = 0.307) of 32.58 ± 0.52 mN/m, a surface tension liquid-gas ([2]; 308.15 K, x1 = 0.399) of 31.96 ± 0.51 mN/m and a surface tension liquid-gas ([2]; 308.15 K, x1 = 0.514) of 31.33 ± 0.51 mN/m. It also gave a surface tension liquid-gas ([2]; 308.15 K, x1 = 0.553) of 31.19 ± 0.52 mN/m, a surface tension liquid-gas ([2]; 308.15 K, x1 = 0.76) of 30.61 ± 0.53 mN/m and a surface tension liquid-gas ([2]; 308.15 K, x1 = 0.791) of 30.38 ± 0.53 mN/m. The surface tension liquid-gas ([2]; 308.15 K, x1 = 0.892) was 30.05 ± 0.53 mN/m, the surface tension liquid-gas ([2]; 308.15 K, x1 = 1) was 29.81 ± 0.54 mN/m and the surface tension liquid-gas ([2]; 313.15 K, x1 = 0.04) was 39.4 ± 0.6 mN/m. For the same compound, the surface tension liquid-gas ([2]; 313.15 K, x1 = 0.105) was 35.07 ± 0.54 mN/m, the surface tension liquid-gas ([2]; 313.15 K, x1 = 0.2) was 33.26 ± 0.52 mN/m and the surface tension liquid-gas ([2]; 313.15 K, x1 = 0.307) was 32.22 ± 0.51 mN/m. For the same compound, the surface tension liquid-gas ([2]; 313.15 K, x1 = 0.399) was 31.62 ± 0.51 mN/m, the surface tension liquid-gas ([2]; 313.15 K, x1 = 0.514) was 30.98 ± 0.51 mN/m and the surface tension liquid-gas ([2]; 313.15 K, x1 = 0.553) was 30.81 ± 0.51 mN/m. The surface tension liquid-gas ([2]; 313.15 K, x1 = 0.76) was 30.29 ± 0.52 mN/m, the surface tension liquid-gas ([2]; 313.15 K, x1 = 0.791) was 30 ± 0.52 mN/m and the surface tension liquid-gas ([2]; 313.15 K, x1 = 0.892) was 29.67 ± 0.53 mN/m. The surface tension liquid-gas ([2]; 313.15 K, x1 = 1) was 29.37 ± 0.54 mN/m, the surface tension liquid-gas ([2]; 318.15 K, x1 = 0.04) was 39.13 ± 0.6 mN/m and the surface tension liquid-gas ([2]; 318.15 K, x1 = 0.105) was 34.81 ± 0.53 mN/m. The surface tension liquid-gas ([2]; 318.15 K, x1 = 0.2) was 32.98 ± 0.51 mN/m, the surface tension liquid-gas ([2]; 318.15 K, x1 = 0.307) was 31.94 ± 0.51 mN/m and the surface tension liquid-gas ([2]; 318.15 K, x1 = 0.399) was 31.31 ± 0.5 mN/m. The surface tension liquid-gas ([2]; 318.15 K, x1 = 0.514) was 30.69 ± 0.51 mN/m, the surface tension liquid-gas ([2]; 318.15 K, x1 = 0.553) was 30.49 ± 0.51 mN/m and the surface tension liquid-gas ([2]; 318.15 K, x1 = 0.76) was 29.91 ± 0.52 mN/m. It also gave a surface tension liquid-gas ([2]; 318.15 K, x1 = 0.791) of 29.59 ± 0.52 mN/m, a surface tension liquid-gas ([2]; 318.15 K, x1 = 0.892) of 29.27 ± 0.52 mN/m and a surface tension liquid-gas ([2]; 318.15 K, x1 = 1) of 28.98 ± 0.53 mN/m. It also gave a surface tension liquid-gas ([2]; 323.15 K, x1 = 0.04) of 38.89 ± 0.6 mN/m, a surface tension liquid-gas ([2]; 323.15 K, x1 = 0.105) of 34.56 ± 0.53 mN/m and a surface tension liquid-gas ([2]; 323.15 K, x1 = 0.2) of 32.68 ± 0.51 mN/m. The surface tension liquid-gas ([2]; 323.15 K, x1 = 0.307) was 31.63 ± 0.5 mN/m, the surface tension liquid-gas ([2]; 323.15 K, x1 = 0.399) was 30.97 ± 0.5 mN/m and the surface tension liquid-gas ([2]; 323.15 K, x1 = 0.514) was 30.36 ± 0.5 mN/m. The surface tension liquid-gas ([2]; 323.15 K, x1 = 0.553) was 30.13 ± 0.5 mN/m, the surface tension liquid-gas ([2]; 323.15 K, x1 = 0.76) was 29.52 ± 0.51 mN/m and the surface tension liquid-gas ([2]; 323.15 K, x1 = 0.791) was 29.24 ± 0.51 mN/m. The surface tension liquid-gas ([2]; 323.15 K, x1 = 0.892) was 28.87 ± 0.52 mN/m and the surface tension liquid-gas ([2]; 323.15 K, x1 = 1) was 28.57 ± 0.52 mN/m.

Compound `CC1CCCC(O)C1` (stereo not drawn) [3-methyl-1-cyclohexanol, (cis+trans)] has a surface tension liquid-gas ([1]; 293.15 K) of 27.82 ± 0.51 mN/m, a surface tension liquid-gas ([1]; 298.15 K) of 27.48 ± 0.51 mN/m and a surface tension liquid-gas ([1]; 303.15 K) of 27.12 ± 0.5 mN/m. For the same compound, the surface tension liquid-gas ([1]; 308.15 K) was 26.76 ± 0.49 mN/m, the surface tension liquid-gas ([1]; 313.15 K) was 26.4 ± 0.49 mN/m and the surface tension liquid-gas ([1]; 318.15 K) was 26.06 ± 0.48 mN/m. It also gave a surface tension liquid-gas ([1]; 323.15 K) of 25.7 ± 0.5 mN/m.
